Data as given in the NIST ThermoML archive (doi:10.1021/acs.jced.8b00812).

Conditions: Liquid; for viscosity: Capillary tube (Ostwald / Ubbelohde) method; for mass density: Vibrating tube method

CCCCCO [pentan-1-ol]
Conditions	mass density [kg/m3]	viscosity [mPa·s]
298.15 K, 2000 kPa	813	3.59
298.15 K, 4000 kPa	814.4	3.66
298.15 K, 6000 kPa	815.8	3.732
298.15 K, 8010 kPa	817.1	3.796
298.15 K, 10000 kPa	818.5	3.869
298.15 K, 13000 kPa	820.4	3.975
298.15 K, 16000 kPa	822.3	4.081
298.15 K, 19010 kPa	824.1	4.192
298.15 K, 22000 kPa	825.9	4.299
298.15 K, 25000 kPa	827.6	4.409
298.15 K, 27990 kPa	829.4	4.507
298.15 K, 29980 kPa	830.4	4.577
303.15 K, 19000 kPa	820.3	3.757
303.15 K, 27980 kPa	825.6	4.041
303.16 K, 1980 kPa	808.8	3.219
303.16 K, 3980 kPa	810.2	3.282
303.16 K, 6010 kPa	811.7	3.346
303.16 K, 8020 kPa	813	3.41
303.16 K, 10030 kPa	814.4	3.474
303.16 K, 12990 kPa	816.4	3.567
303.16 K, 15980 kPa	818.4	3.662
303.16 K, 22010 kPa	822.1	3.852
303.16 K, 25000 kPa	823.9	3.947
303.16 K, 29990 kPa	826.7	4.105
313.15 K, 1990 kPa	800.6	2.438
313.15 K, 4000 kPa	802.2	2.486
313.15 K, 5980 kPa	803.7	2.533
313.15 K, 7980 kPa	805.1	2.581
313.15 K, 10020 kPa	806.6	2.629
313.15 K, 13010 kPa	808.7	2.701
313.15 K, 19020 kPa	812.8	2.845
313.15 K, 21980 kPa	814.7	2.916
313.15 K, 30020 kPa	819.6	3.109
313.16 K, 15980 kPa	810.8	2.772
313.16 K, 24990 kPa	816.6	2.988
313.16 K, 28000 kPa	818.4	3.06
323.15 K, 2000 kPa	793.5	1.833
323.15 K, 4000 kPa	795	1.866
323.15 K, 6000 kPa	796.7	1.901
323.15 K, 8000 kPa	798.2	1.935
323.15 K, 10000 kPa	799.6	1.969
323.15 K, 13000 kPa	801.9	2.022
323.15 K, 16000 kPa	804	2.078
323.15 K, 19000 kPa	806.1	2.133
323.15 K, 22000 kPa	808.2	2.189
323.15 K, 25000 kPa	810.2	2.244
323.15 K, 27990 kPa	812.1	2.299
323.15 K, 29990 kPa	813.4	2.335
